Measured values as given in patent US20240016763A1, “COENZYME Q10 MICROEMULSION, PREPARATION METHOD THEREFOR AND USE THEREOF” (ZHEJIANG NHU CO., LTD., priority 2021, published 2024).

How the values were obtained:
[1] = Test of particle size DV(90) (laser particle size distribution); assay type: physicochemical; conditions: sample diluted 1:20 with distilled water, 25° C.
Procedure: The microemulsion sample is diluted with distilled water at a ratio of 1:20 and gently shaken to form a clear microemulsion. Then, the particle size distribution of the emulsion is measured by MASTERSIZER 3000 laser particle size distribution instrument (purchased from Malvern Company, UK) at 25° C.

[2] = Test of stability: irradiation at 4500 Lx light intensity, 15 days; assay type: physicochemical; conditions: 4500 Lx illumination
Description: (§1) The coenzyme Q10 microemulsion is quickly poured into a transparency meter barrel, and an inspector observes vertically downward from the barrel mouth of the transparency meter, and slowly releases the microemulsion just to a height of the microemulsion where the type at the bottom can be clearly recognized. The height of the microemulsion is the transparency of the coenzyme Q10 microemulsion, which is generally more than 30 cm to be transparent. The measurement is repeated for 3 times, and the results are averaged.
(§2) Microemulsion samples and coenzyme Q10 raw material are placed in the conditions of irradiation at 4500 Lx light intensity, oxygen filling (25° C.) and 60° C. (incubator) for 15 days, respectively, for experiments. In these experiments, samples are taken on day 0, day 5, day 10 and day 15, respectively, and the content of coenzyme Q10 is determined by HPLC, to investigate the effects of light, oxygen and temperature on the labeled content (%) of coenzyme Q10 and the appearance.
(§3) Refer to the test method of coenzyme Q10 content in Chinese Pharmacopoeia (2015 edition).

[3] = Test of stability: oxygen filling (25° C.), 15 days; assay type: physicochemical
Description: as §1, §2, §3

[4] = Test of stability: 60° C. (incubator), 15 days; assay type: physicochemical
Description: as §1, §2, §3

[5] = Test of bioavailability: plasma concentration in rats after intragastric administration; assay type: in vivo; conditions: mean±SD, n=10
Procedure: Preparation of coenzyme Q10 raw material sample solution: 0.1 g of coenzyme Q10 crystal is accurately weighed and dissolved in 100 mL of diethylene glycol monoethyl ether solution, as a raw material sample.
Microemulsion samples of Examples 1 to 6, coded as Sample 1, Sample 2, Sample 3, Sample 4, Sample 5 and Sample 6, are selected to conduct animal experiments.
Experimental conditions: the temperature of the laboratory feeding environment is 25±3° C., the relative humidity is 55% to 70%, the animals are free to drink water and eat food (deionized water and standard feed) every day, and they are fasted for 12 hours before the experiment but drink water freely.
Experimental animals and grouping: seventy 8-week-old healthy SPF-grade male SD rats, provided by Hubei Experimental Animal Research Center, weighing from 220 g to 230 g.
The rats are operated according to the international experimental guidelines for experimental animals, and every 10 rats fasted for 12 hours are divided into one group by a completely random design, totally seven groups.
Oral administration, sample collection and treatment: the rats are intragastrically administered with the same dose (15 mg/kg: coenzyme Q10 content) of microemulsion samples 1 to 6 and raw material samples, respectively. After administration, plasma is collected at 5 minutes, 15 minutes, 30 minutes, 1 hour, 3 hours, 6 hours, 10 hours and 15 hours, respectively, and put into anticoagulant centrifuge tubes containing heparin, mixed uniformly and then centrifuged to separate the plasma. After the treatment, the plasma concentration is detected by HPLC.
According to the results of the plasma concentration, statistical fitting analysis is carried out by using statistical analysis software, to calculate the plasma concentration. The results is expressed as mean value±standard deviation.

DV(90) [1]: 75000 nm
Labeled content of coenzyme Q10 ([2]; 0 day): 99%
Labeled content of coenzyme Q10 ([2]; 5 days): 95%
Labeled content of coenzyme Q10 ([2]; 10 days): 93%
Labeled content of coenzyme Q10 ([2]; 15 days): 88%
Labeled content of coenzyme Q10 ([3]; 0 day): 99%
Labeled content of coenzyme Q10 ([3]; 5 days): 97%
Labeled content of coenzyme Q10 ([3]; 10 days): 95%
Labeled content of coenzyme Q10 ([3]; 15 days): 90%
Labeled content of coenzyme Q10 ([4]; 0 day): 99%
Labeled content of coenzyme Q10 ([4]; 5 days): 97%
Labeled content of coenzyme Q10 ([4]; 10 days): 95%
Labeled content of coenzyme Q10 ([4]; 15 days): 92%
average plasma concentration ([5]; intragastric 15 mg/kg coenzyme Q10, 5 minutes): 12.1 µg/L
average plasma concentration ([5]; intragastric 15 mg/kg coenzyme Q10, 15 minutes): 21.3 µg/L
average plasma concentration ([5]; intragastric 15 mg/kg coenzyme Q10, 30 minutes): 49.3 µg/L
average plasma concentration ([5]; intragastric 15 mg/kg coenzyme Q10, 1 hour): 93.0 µg/L
average plasma concentration ([5]; intragastric 15 mg/kg coenzyme Q10, 3 hours): 110.4 µg/L
average plasma concentration ([5]; intragastric 15 mg/kg coenzyme Q10, 6 hours): 83.3 µg/L
average plasma concentration ([5]; intragastric 15 mg/kg coenzyme Q10, 10 hours): 37.6 µg/L
average plasma concentration ([5]; intragastric 15 mg/kg coenzyme Q10, 15 hours): 11.5 µg/L
SMILES: COC1=C(OC)C(=O)C(C/C=C(\C)CC/C=C(\C)CC/C=C(\C)CC/C=C(\C)CC/C=C(\C)CC/C=C(\C)CC/C=C(\C)CC/C=C(\C)CC/C=C(\C)CCC=C(C)C)=C(C)C1=O [coenzyme Q10 raw material, coenzyme Q10]
